Consider 31 molecules from patent publication US8404683B2, “Inhibitors of the interaction between MDM2 and P53” (Janssen Pharmaceutical N.V., priority 2004, dated 2013).

This experiment deals with U87MG cells. Kind of experiment: Proliferation assay (MTT-based) on U87MG tumour cells. As to conditions: Homo sapiens, U-87 MG, 96 h, 4 days of incubation, negative log value of the IC50-value, read-out: cell proliferation pIC50 (converted). Here is the method:
U87MG cells are human glioblastoma cells with wild type p53. In this cell line MDM2 tightly controls p53 expression.
Cellular activity of the compounds of formula (I) was determined on U87MG tumour cells using a colorimetric assay for cell toxicity or survival (see example C.2).
All compounds tested were dissolved in DMSO and further dilutions were made in culture medium. Final DMSO concentrations never exceeded 0.1% (v/v) in cell proliferation assays. Controls contained U87MG cells and DMSO without compound and blanks contained DMSO but no cells.
U87MG cells were seeded in 96-well cell culture plates at 3000 cells/well/100 μl. 24 hours later, medium was changed and compound and/or solvent were added to a final volume of 200 μl. Following 4 days of incubation, medium was replaced by 200 μl fresh medium and cell growth was assessed using a MTT-based assay. Therefore, 25 μl of the MTT solution (0.5% MTT research grade from Serva in phosphate-buffered saline) was added to each well and the cells were further incubated for 2 hours at 37° C. The medium was then carefully aspirated and the blue MTT-formazan product was dissolved by adding to each well 25 μl 0.1 M glycin and 100 μl DMSO. The plates were shaken for another 10 min on a micro plate shaker before reading absorbance at 540 nm by a Biorad micro plate reader.
Within an experiment, the results for each experimental condition are the mean of 3 replicate wells. For initial screening purposes, compounds were tested at a single fixed concentration of 10^−5 M. For active compounds, the experiments were repeated to establish full concentration-response curves. For each experiment, controls (containing no drug) and a blank incubation (containing no cells or drugs) were run in parallel. The blank value was subtracted from all control and sample values. For each sample, the mean value for cell growth (in absorbance units) was expressed as a percentage of the mean value for cell growth of the control. When appropriate, IC50-values (concentration of the drug, needed to reduce cell growth to 50% of the control) were computed using probit analysis for graded data (Finney, D. J., Probit Analyses, 2nd Ed. Chapter 10, Graded Responses, Cambridge University Press, Cambridge 1962). Herein the effects of test compounds are expressed as pIC50 (the negative log value of the IC50-value) (see table F-2).

Molecules are shown by their SMILES.

Consider `CCOc1cc(Nc2ccnc(CO)c2)ccc1NCCc1c[nH]c2cc(OC)ccc12` [Compound 69], for which the IC50 is 100 nM.
Take `N#Cc1ccc2nccc(Nc3ccc(NCCc4c[nH]c5ccccc45)cc3)c2c1` [Compound 29]: the IC50 was 251 nM.
Turning to `OCc1cnccc1Nc1ccc(NCCc2c[nH]c3ccccc23)cc1` [Compound 123], the IC50 was 5010 nM.
With `c1ccc2c(CNCc3ccc(Nc4ccncc4)cc3)c[nH]c2c1` [Compound 79], the IC50 was 2510 nM.
Under `CN(C)CCNCc1cc(Nc2ccc(NCCc3c[nH]c4ccccc34)cc2)ccn1` [Compound 59] stands 398 nM.
`c1ccc2c(CNc3ccc(NCCc4c[nH]c5ccccc45)cc3)ccnc2c1` [Compound 120]: the IC50 is 5010 nM.
In the case of `c1ccc(COc2cc(Nc3ccncc3)ccc2NCCc2c[nH]c3ccccc23)cc1` [Compound 61], the IC50 is 316 nM.
As for `c1ccc2c(c1)NCC2CCNc1ccc(Nc2ccncc2)cc1` (stereo not shown) [Compound 68], the IC50 is 2510 nM.
`CC(NCc1ccccc1)c1cc(Nc2ccc(NCCc3c[nH]c4ccccc34)cc2)ccn1` (stereo not shown) [Compound 140]: the IC50 was 2510 nM.
Take `COc1cccc2c(Nc3ccc(NCCc4c[nH]c5ccccc45)cc3)ccnc12` [Compound 21]: the IC50 was 10 nM.
With `c1ccc2c(CCNc3ccc(Nc4ccnc(CN5CCCC5)c4)cc3)c[nH]c2c1` [Compound 53], the IC50 was 631 nM.
Under `CC(=O)OC(C)(C)c1cc(Nc2ccc(NCCc3c[nH]c4ccccc34)cc2)ccn1` [Compound 202] stands 3160 nM; under `COCCN(C)C(=O)C(Cc1c[nH]c2ccccc12)Nc1ccc(Nc2ccncc2)cc1` (stereo not shown) [Compound 215], 3160 nM.
Under `CNC(C)c1cc(Nc2ccc(NCCc3c[nH]c4ccccc34)cc2)ccn1` (stereo not shown) [Compound 142] stands 3160 nM.
As to `CC(=O)c1cc(Nc2ccc(NCCc3c[nH]c4ccccc34)cc2)ccn1` [Compound 105], the IC50 is 7940 nM.
The same measure for `COc1ccc2[nH]cc(CCNc3ccc(Nc4ccncc4)cc3)c2c1` [Compound 62]: 2510 nM.
Under `CCOc1cc(Nc2ccnc(C(C)(C)O)c2)ccc1NCCc1c[nH]c2cc(OC)ccc12` [Compound 139] stands 2000 nM.
With `CC(C)(C)OC(=O)N(CCc1cn(C(=O)OC(C)(C)C)c2ccccc12)c1ccc(Nc2ccncc2)cc1` [Compound 226], the IC50 was 3160 nM.
Consider `COc1ccc2c(CCNc3ccc(Nc4ccncc4)cc3)c[nH]c2c1` [Compound 54], for which the IC50 was 126 nM.
Turning to `CC(CO)(CO)C1CCN(C(=O)C(Cc2c[nH]c3ccccc23)Nc2ccc(Nc3ccncc3)cc2)CC1` (stereo not shown) [Compound 221], the IC50 was 3980 nM.
The same measure for `Cc1cccc2c(Nc3ccc(NCCc4c[nH]c5ccccc45)cc3)ccnc12` [Compound 22]: 20 nM.
With `CC(=O)NCc1cc(Nc2ccc(NCCc3c[nH]c4ccccc34)cc2)ccn1` [Compound 206], the IC50 was 3160 nM.
As for `Cn1cc(CCNc2ccc(Nc3ccnc4ccccc34)cc2)c2ccccc21` [Compound 28], the IC50 was 200 nM.
As for `CCC(=O)NCc1cc(Nc2ccc(NCCc3c[nH]c4ccccc34)cc2)ccn1` [Compound 132], the IC50 was over 10000 nM.
Under `c1ccc2c(CCNc3ccc(Nc4ccnc(CNCCN5CCOCC5)c4)cc3)c[nH]c2c1` [Compound 153] stands 2510 nM; under `c1ccc(CCCNCc2cc(Nc3ccc(NCCc4c[nH]c5ccccc45)cc3)ccn2)cc1` [Compound 164], 2510 nM; under `c1ccc2c(CCCNc3ccc(Nc4ccncc4)cc3)c[nH]c2c1` [Compound 71], 794 nM.
For the molecule `c1ccc2c(c1)NCC2CCNc1ccc(Nc2ccnc3ccccc23)cc1` (stereo not shown) [Compound 34], the IC50 is 50.1 nM.
Under `CCOCc1cc(Nc2ccc(NCCc3c[nH]c4ccccc34)cc2)ccn1` [Compound 134] stands 1260 nM; under `CC(=O)OCc1cc(Nc2ccc(NCCc3c[nH]c4ccccc34)cc2)ccn1` [Compound 151], over 10000 nM.
Consider `Nc1cccc2c(Nc3ccc(NCCc4c[nH]c5ccccc45)cc3)ccnc12` [Compound 25], for which the IC50 is 39.8 nM.
